Test results as given in US7592366B2, “Therapeutic compounds” (Allergan, Inc., priority 2006, dated 2009).

How the values were obtained:
[1] = biological target: EP2 (Homo sapiens, UniProt P43116); test: Competition binding [3H]PGE2, EP2 Ki; design: expressed in transfected cells; host or cells: HEK 293; conditions: [3H]PGE2 competition, HEK 293 cells expressing human EP2
Description: Competition binding experiments were performed in a medium containing Hank's balanced salt solution, Hepes 20 mM, pH 7.3, membranes (˜60 μg protein) or 2×10^5 cells from HEK 293 cells stably expressing human EP2 receptors, [^3H]PGE2 (10 nM) and various concentrations of test compounds in a total volume of 300 μl. Reaction mixtures were incubated at 23° C. for 60 min, and were filtered over Whatman GF/B filters under vacuum. Filters were washed three times with 5 ml ice-cold buffer containing 50 mM Tris/HCl (pH 7.3). Non-specific binding was estimated in the presence of excess unlabeled PGE2 (10 μM). Binding data fitted to the binding model for a single class of binding sites, using nonlinear regression analysis. IC50 values thus obtained were converted to Ki using the equation of Ki=(IC50/(1+[L]/KD) where [L] represents PGE2 concentration (10 nM) and KD the dissociation constant for [^3H]PGE2 at human EP2 receptors (40 nM).
(§1) HEK-293 cells stably expressing the human or feline FP receptor, or EP1, EP2, or EP4 receptors were washed with TME buffer, scraped from the bottom of the flasks, and homogenized for 30 sec using a Brinkman PT 10/35 polytron. TME buffer was added to achieve a final 40 ml volume in the centrifuge tubes (the composition of TME is 100 mM TRIS base, 20 mM MgCl2, […]; 10N HCl is added to achieve a pH of 7.4).
(§2) The cell homogenate was centrifuged at 19000 r.p.m. for 20 min at 4° C. using a Beckman Ti-60 rotor. The resultant pellet was resuspended in TME buffer to give a final 1 mg/ml protein concentration, as determined by Biorad assay. Radioligand binding competition assays vs. [^3H-]17-phenyl PGF2α (5 nM) were performed in a 100 μl volume for 60 min. Binding reactions were started by adding plasma membrane fraction. The reaction was terminated by the addition of 4 ml ice-cold TRIS-HCl buffer and rapid filtration through glass fiber GF/B filters using a Brandel cell harvester. The filters were washed 3 times with ice-cold buffer and oven dried for one hour.
(§3) [^3H-] PGE2 (specific activity 180 Ci mmol) was used as the radioligand for EP receptors. [^3H] 17-phenyl PGF2α was employed for FP receptor binding studies. Binding studies employing EP1, EP2, EP4 and FP receptors were performed in duplicate in at least three separate experiments. A 200 μl assay volume was used. Incubations were for 60 min at 25° C. and were terminated by the addition of 4 ml of ice-cold 50 mM TRIS-HCl, followed by rapid filtration through Whatman GF/B filters and three additional 4 ml washes in a cell harvester (Brandel). Competition studies were performed using a final concentration of 5 nM [^3H]-PGE2, or 5 nM [^3H] 17-phenyl PGF2α and non-specific binding determined with 10^−5M of unlabeled PGE2, or 17-phenyl PGF2α, according to receptor subtype studied.

[2] = biological target: T1, EP4 receptors (Homo sapiens, UniProt P35408); test: Radioligand binding [3H]PGE2, EP4 Ki; conditions: [3H]PGE2 competition, HEK-293 cells expressing EP4
T1 construct: expressed in transfected cells; host or cells: HEK-293
Description: as §1, §2, §3

[3] = biological target: T2, hDP/Gqs5 (Homo sapiens, UniProt Q13258); test: FLIPR calcium signal, hDP; assay type: cell-based; conditions: read-out: Other Receptors (EC50 in nM) hDP
T2 construct: expressed in transfected cells; host or cells: HEK-293(EBNA)
T2 sequence (Q13258 1-359): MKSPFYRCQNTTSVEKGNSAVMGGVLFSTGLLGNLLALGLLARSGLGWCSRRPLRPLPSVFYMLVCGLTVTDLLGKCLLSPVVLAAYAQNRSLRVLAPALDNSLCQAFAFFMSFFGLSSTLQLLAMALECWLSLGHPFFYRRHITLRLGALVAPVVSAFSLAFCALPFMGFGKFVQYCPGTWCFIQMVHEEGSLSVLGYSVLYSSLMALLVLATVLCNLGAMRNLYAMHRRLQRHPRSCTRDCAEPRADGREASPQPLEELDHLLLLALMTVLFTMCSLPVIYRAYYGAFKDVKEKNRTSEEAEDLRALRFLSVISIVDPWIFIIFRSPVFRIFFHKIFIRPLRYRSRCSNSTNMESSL
Description: (§4) HEK-293(EBNA) cells, stably expressing one type or subtype of recombinant human prostaglandin receptors (prostaglandin receptors expressed: hDP/Gqs5; hEP1; hEP2/Gqs5; hEP3A/Gqi5; hEP4/Gqs5; hFP; hIP; hTP), were cultured in 100 mm culture dishes in high-glucose DMEM medium containing 10% fetal bovine serum, 2 mM l-glutamine, 250 μg/ml geneticin (G418) and 200 μg/ml hygromycin B as selection markers, and 100 units/ml penicillin G, 100 μg/ml streptomycin and 0.25 μg/ml amphotericin B.
(§5) Cells were seeded at a density of 5×10^4 cells per well in Biocoat® Poly-D-lysine-coated black-wall, clear-bottom 96-well plates (Becton-Dickinson) and allowed to attach overnight in an incubator at 37° C. Cells were then washed two times with HBSS-HEPES buffer (Hanks Balanced Salt Solution without bicarbonate and phenol red, 20 mM HEPES, pH 7.4) using a Denley Cellwash plate washer (Labsystems). After 45 minutes of dye-loading in the dark, using the calcium-sensitive dye Fluo-4 […] at a final concentration of 2 μM, plates were washed four times with HBSS-HEPES buffer to remove excess dye leaving 100 μl in each well. Plates were re-equilibrated to 37° C. for a few minutes.
(§6) Cells were excited with an Argon laser at 488 nm, and emission was measured through a 510-570 nm bandwidth emission filter (FLIPR™, Molecular Devices, Sunnyvale, Calif.). Drug solution was added in a 50 μl volume to each well to give the desired final concentration. The peak increase in fluorescence intensity was recorded for each well. On each plate, four wells each served as negative (HBSS-HEPES buffer) and positive controls (standard agonists: BW245C (hDP); PGE2 (hEP1; hEP2/Gqs5; hEP3A/Gqi5; hEP4/Gqs5); PGF2α (hFP); carbacyclin (hIP); U-46619 (hTP), depending on receptor). The peak fluorescence change in each drug-containing well was then expressed relative to the controls.
(§7) Compounds were tested in a high-throughput (HTS) or concentration-response (CoRe) format. In the HTS format, forty-four compounds per plate were examined in duplicates at a concentration of 10^−5 M. To generate concentration-response curves, four compounds per plate were tested in duplicates in a concentration range between 10^−5 and 10^−11 M. The duplicate values were averaged. In either, HTS or CoRe format each compound was tested on at least 3 separate plates using cells from different passages to give an n≧3.

[4] = biological target: T3, hEP4/Gqs5 (Homo sapiens, UniProt P35408); test: FLIPR calcium signal, EP4; assay type: cell-based; conditions: HEK-293(EBNA) cells
T3 construct: expressed in transfected cells; host or cells: HEK-293(EBNA)
Description: as §4, §5, §6, §7

EP2, sequence (P43116 whole entry): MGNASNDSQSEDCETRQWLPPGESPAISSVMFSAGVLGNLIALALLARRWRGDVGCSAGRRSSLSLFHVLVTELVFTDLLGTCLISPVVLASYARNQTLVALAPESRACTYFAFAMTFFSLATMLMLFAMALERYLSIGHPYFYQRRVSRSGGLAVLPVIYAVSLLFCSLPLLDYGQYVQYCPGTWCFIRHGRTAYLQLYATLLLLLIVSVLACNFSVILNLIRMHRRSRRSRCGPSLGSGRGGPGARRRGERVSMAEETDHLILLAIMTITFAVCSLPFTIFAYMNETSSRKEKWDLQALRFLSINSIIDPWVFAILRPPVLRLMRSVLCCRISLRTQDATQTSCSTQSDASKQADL
T1 sequence (P35408 whole entry): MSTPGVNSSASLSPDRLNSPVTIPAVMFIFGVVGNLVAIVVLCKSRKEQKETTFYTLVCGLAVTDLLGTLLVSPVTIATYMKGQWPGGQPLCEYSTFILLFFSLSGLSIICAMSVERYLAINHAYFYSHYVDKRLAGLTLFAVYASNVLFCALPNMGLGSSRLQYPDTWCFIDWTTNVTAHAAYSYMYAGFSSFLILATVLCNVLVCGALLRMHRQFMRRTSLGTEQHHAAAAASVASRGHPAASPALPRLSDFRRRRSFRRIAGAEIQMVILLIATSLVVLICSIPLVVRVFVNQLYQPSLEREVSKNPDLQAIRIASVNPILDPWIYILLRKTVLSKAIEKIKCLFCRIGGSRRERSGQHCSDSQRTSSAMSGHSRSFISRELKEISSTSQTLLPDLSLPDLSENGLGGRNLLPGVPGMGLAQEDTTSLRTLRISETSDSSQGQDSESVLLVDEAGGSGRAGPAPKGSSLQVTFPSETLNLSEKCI
T3 sequence (P35408 whole entry): as above

## O=C(O)c1ccc(CCC[C@@H]2[C@@H](CCc3cc(F)cc(F)c3)[C@H](O)C[C@H]2Cl)s1 [11d, 5-(3-((1R,2R,3R,5R)-5-chloro-2-(3,5-difluorophenethyl)-3-hydroxycyclopentyl)propyl)thiophene-2-carboxylic acid]
[1]
  Ki: 0.002 µM
[2]
  Ki: 2.57 µM
[3]
  EC50: 12700 nM
[4]
  EC50: > 10 µM

## O=C(O)c1ccc(CCC[C@@H]2[C@@H](CCc3cc(Cl)cc(Cl)c3)[C@@H](O)C[C@H]2Cl)s1 [compound 17, 5-(3-((1R,2R,3S,5R)-5-chloro-2-(3,5-dichlorophenethyl)-3-hydroxycyclopenty)propyl)thiophene-2-carboxylic acid]
[1]
  Ki: 0.022 µM
[2]
  Ki: > 10 µM
[3]
  EC50: > 10000 nM
